Our source for the IC50 and EC50 values is patent publication US8350039B2, “Substituted isoquinoline derivatives, pharmaceutical compositions, and methods of use as beta-secretase inhibitors” (High Point Pharmaceuticals, LLC, priority 2009, dated 2013).

In experiment [1] the target is T1, BACE-1 enzyme (Homo sapiens, UniProt P56817).
T1 construct: purchased R & D Systems 931AS
Kind of experiment: BACE Fluorescence Resonance Energy Transfer (FRET) Assay. Conditions: peptide substrate, pH 4-4.5, 30 min pre-incubation, 1.5 hours at room temperature. The format is biochemical. As for the experimental part: BACE Fluorescence Resonance Energy Transfer (FRET) Assay
In the following assay, the proteolytic activity of BACE is measured by observing cleavage of a fluorescent group from a peptide substrate containing a rhodamine fluorescent donor and a quenching acceptor.
The inhibitory activity of compounds of Formula (I) may be compared to a statine derived control inhibitor STA200 (MP Biomedical Cat. #STA-200). The cleavage reaction occurs when a BACE-1 substrate (Invitrogen, Cat. #P2986) was added to a reaction mixture containing BACE-1 enzyme (R & D Systems, Cat. #931AS) and allowed to proceed for 1.5 hours. Fluorescence, used as a marker of BACE activity, is monitored using 540 nm excitation and 585 nm emission wavelengths (Envision, Perkin Elmer).
A typical assay reaction contains BACE-1 enzyme—in assay buffer (50 mM sodium acetate, pH 4-4.5, 0.01% CHAPS (3-[(3-Cholamidopropyl)dimethylammonio]-1-propanesulfonate), 0.0125% TritonX-100, 0.006% EDTA) which is pre-incubated for 30 minutes with test compound in 7.5% DMSO. The reaction is initiated with the addition of BACE-1 substrate in assay buffer and allowed to proceed for 1.5 hours at room temperature. Assays are conducted in black 384-well microtiter plates and scanned at room temperature using 540 nm excitation and 585 nm emission wavelengths.
A test compound's activity is reported as the IC50.

Experiment [2] has as its system HEK293 cells stably expressing wildtype human APP695 protein (HEK-APPwt cells). Kind of experiment: Aβ Cell Based Assay (Aβ1-40 secretion, ELISA). The conditions noted are these: reduction of Aβ1-40 secretion from HEK-APPwt cells, 6 hours incubation, DAPT as 100% inhibition reference. As to the method: Aβ Cell Based Assay Procedure
In the following assay, the proteolytic activity of BACE in cells exposed to varying concentrations of a compound of interest is measured by observing the amount of Aβ1-40 secreted from HEK293 cells (Human Embryonic Kidney epithelial cell line) stably expressing wildtype human APP695 protein (HEK-APPwt cells).
HEK-APPwt cells were grown in high glucose DMEM (Dulbecco's Modified Eagles Medium SIGMA Cat. #D5796) supplemented with 25 mM HEPES (4-(2-hydroxyethyl)-1-piperazineethanesulfonic acid) (pH 7.4) (Invitrogen Cat. #15630-114), 0.1 mM NEAA (Non-essential Amino Acids) (BioWhittaker Cat. #13-114E), 10% fetal bovine serum (SIGMA Cat. #F4135) and 250 μg/mL hygromycin (Invitrogen Cat. #10687-010) in T-225 flasks at 37° C. with 5% CO2 and humidity control.
Test compounds were initially prepared in DMSO and diluted with DMEM media containing 2% FBS (Fetal bovine serum). Ten standard compound solutions were prepared having a range of concentrations. The standard compound solutions were used to determine the EC50 of the test compound. The range of concentrations chosen may depend on the compound's predicted potency.
To prepare the cells for the assay, a flask containing HEK-APPwt cells were trypsinized briefly (1 mL trypsin), and once the cells detached, 4 mL of 10% FBS-DMEM was added to the flask. The detached cells were centrifuged at 900 rpm for 5 min to form a pellet.
The HEK-APPwt cell pellet was re-suspended with 10 mL DMEM media containing 2% FBS. 80 μL of the cell suspension was added to each well of a 96-well cell culture plate to give 100×10^4 cells/mL. 10 μL of a standard compound solution was added to each well of the 96-well cell culture plate followed by 10 μL of Alamar blue solution. The cells were incubated at 37° C. in a 5% CO2 incubator for 6 hours.
At the end of the incubation, the plates were removed from incubator, and the supernatant was collected. Aβ1-40 concentration in the medium was measured by using a commercial Aβ1-X ELISA kit (IBL, Japan Cat. #27729). Briefly, the ELISA plates were coated with an anti-human Aβ (N)(82E1) mouse IgG monoclonal antibody. A horseradish peroxidase conjugated anti-human Aβ11-28 mouse IgG monoclonal antibody was used for detection. The cell culture supernatant was diluted with EIA buffer+protease inhibitors (kit buffer containing protease inhibitors (1 mL PI/30 mL buffer)). A 100 μL aliquot of the diluted supernatant was added to each well of the ELISA plate and incubated for 6 hrs at 4° C. The ELISA plate was washed 8 times with phosphate buffered saline (PBS) containing 0.05% Tween 20.
A 100 μL of detection antibody was then added and incubated for 1 hour at 4° C. The plate was washed 8 times with PBS buffer containing 0.05% Tween 20 followed by addition of 100 μL of the chromogen tetramethylbenzidine (TMB). The plate was incubated in the dark at room temperature for about 30 min and a stop solution (1N H2SO4) was added.
The intensity of the color developed was measured at 450 nm. The optical density at 450 nm (OD450) is proportional to the concentration of human Aβ1-40 secreted by the cell. As a reference, N—[N-(3,5-difluorophenacetyl-L-alanyl)]-S-phenylglycine t-butyl ester (DAPT, a γ-secretase inhibitor) was used to indicate 100% inhibition of BACE activity. Thus, the assay measures the ability of a compound of interest to reduce Aβ1-40 secretion. Compound potency was reported as the EC50 by calculating the percent inhibition at all concentration levels and the data were fit with non-linear curve fitting algorithm using in GraphPad Prism.

SMILES strings stand for the structures.

T1 sequence (P56817 46-457 limits assumed): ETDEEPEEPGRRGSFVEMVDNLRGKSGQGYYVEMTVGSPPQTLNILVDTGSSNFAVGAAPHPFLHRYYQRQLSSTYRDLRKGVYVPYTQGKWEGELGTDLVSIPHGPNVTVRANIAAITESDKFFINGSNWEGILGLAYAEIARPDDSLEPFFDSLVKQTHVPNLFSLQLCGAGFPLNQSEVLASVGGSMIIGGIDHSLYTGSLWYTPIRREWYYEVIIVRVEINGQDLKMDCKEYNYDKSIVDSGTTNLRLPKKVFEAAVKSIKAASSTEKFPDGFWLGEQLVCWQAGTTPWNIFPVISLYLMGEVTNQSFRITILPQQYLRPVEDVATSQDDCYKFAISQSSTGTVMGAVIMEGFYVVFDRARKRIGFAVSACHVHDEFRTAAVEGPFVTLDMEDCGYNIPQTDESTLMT

In experiment [1], `O=C(Nc1nc2cc(OCc3ccc(F)cc3)ccc2[nH]1)c1cc2ccccc2cn1` [Example 4, Isoquinoline-3-carboxylic acid [5-(4-fluoro-benzyloxy)-1H-benzoimidazol-2-yl]-amide] displayed a 50% inhibitory concentration (IC50) of 0.1 µM. This compound registered an EC50 in experiment [2] of 0.16 µM.
The like results for `O=C(Nc1nc2cc(OCCc3ccccc3)ccc2[nH]1)c1cc2ccccc2cn1` [Example 2, Isoquinoline-3-carboxylic acid (5-phenethyloxy-1H-benzoimidazol-2-yl)-amide] were, in that order, 0.19 µM and 2 µM.
The matching figures for `O=C(Nc1nc2cc(-c3ccccc3)ccc2[nH]1)c1cc2ccccc2cn1` [Example 9, Isoquinoline-3-carboxylic acid (5-phenyl-1H-benzoimidazol-2-yl)-amide]: 0.19 µM and 1.09 µM.
The matching figures for `O=C(Nc1nc2cc(OCc3ccccc3)ccc2[nH]1)c1cc2ccccc2cn1` [Example 1, Isoquinoline-3-carboxylic acid (5-benzyloxy-1H-benzoimidazol-2-yl)-amide]: 0.085 µM and 0.12 µM.
For the compound `O=C(Nc1nc2cc(OCc3ccc(F)cc3F)ccc2[nH]1)c1cc2ccccc2cn1` [Example 5, Isoquinoline-3-carboxylic acid [5-(2,4-difluoro-benzyloxy)-1H-benzoimidazol-2-yl]-amide], in experiment [1], the IC50 was determined as 0.86 µM. Further, in experiment [2], the EC50 amounted to 1.2 µM.
The like results for `O=C(Nc1nc2cc(NCc3ccccc3)ccc2[nH]1)c1cc2ccccc2cn1` [Example 11, Isoquinoline-3-carboxylic acid (5-benzylamino-1H-benzoimidazol-2-yl)-amide] were, in that order, 0.13 µM and 0.6 µM.
As for `O=C(Nc1nc2cc(OCCC3CCCC3)ccc2[nH]1)c1cc2ccccc2cn1` [Example 6, Isoquinoline-3-carboxylic acid [5-(2-cyclopentyl-ethoxy)-1H-benzoimidazol-2-yl]-amide], the midpoint of inhibition in experiment [1], the IC50, lay at 0.26 µM. The same compound gave an EC50 in experiment [2] of 0.16 µM.
The matching figures for `COc1cccc(-c2ccc3[nH]c(NC(=O)c4cc5ccccc5cn4)nc3c2)c1` [Example 10, Isoquinoline-3-carboxylic acid [5-(3-methoxy-phenyl)-1H-benzoimidazol-2-yl]-amide]: 0.16 µM and 1 µM.
Compound `O=C(Nc1nc2cc(OCc3ccc(C(F)(F)F)cc3)ccc2[nH]1)c1cc2ccccc2cn1` [Example 3, Isoquinoline-3-carboxylic acid [5-(4-trifluoromethyl-benzyloxy)-1H-benzoimidazol-2-yl]-amide] gave an IC50 in experiment [1] of 0.95 µM. In addition, in experiment [2], the EC50 amounted to 0.55 µM.
The like results for `O=C(Nc1nc2cc(N3CCC(c4ccccc4)CC3)ccc2[nH]1)c1cc2ccccc2cn1` [Example 7, Isoquinoline-3-carboxylic acid [5-(4-phenyl-piperidin-1-yl)-1H-benzoimidazol-2-yl]-amide] were, in that order, 0.1 µM and 1.4 µM.
The matching figures for `O=C(Nc1nc2cc(N(Cc3ccccc3)Cc3ccccc3)ccc2[nH]1)c1cc2ccccc2cn1` [Example 12, Isoquinoline-3-carboxylic acid (5-dibenzylamino-1H-benzoimidazol-2-yl)-amide]: 0.38 µM and 2.3 µM.
The like results for `O=C(Nc1nc2cc(OCCCc3ccccc3)ccc2[nH]1)c1cc2ccccc2cn1` [Example 8, Isoquinoline-3-carboxylic acid [5-(3-phenyl-propoxy)-1H-benzoimidazol-2-yl]-amide] were, in that order, 0.47 µM and 1.2 µM.
